# Reference: US20080090805A1, “CB-1 MODULATING COMPOUNDS AND THEIR USE” (ACADIA PHARMACEUTICALS INC., priority 2005, published 2008)
# Molecular target: CB1 (mutant) (Homo sapiens, UniProt P21554)
# Test: R-SAT functional receptor assay, CB1 (mutant, truncated after amino acid 417)
# Format: cell-based
# Conditions: Appendix A; R-SAT CB1; receptor form (mutant or wild-type) not stated
# Sequence of CB1 (mutant) (P21554 1-417, change not shown): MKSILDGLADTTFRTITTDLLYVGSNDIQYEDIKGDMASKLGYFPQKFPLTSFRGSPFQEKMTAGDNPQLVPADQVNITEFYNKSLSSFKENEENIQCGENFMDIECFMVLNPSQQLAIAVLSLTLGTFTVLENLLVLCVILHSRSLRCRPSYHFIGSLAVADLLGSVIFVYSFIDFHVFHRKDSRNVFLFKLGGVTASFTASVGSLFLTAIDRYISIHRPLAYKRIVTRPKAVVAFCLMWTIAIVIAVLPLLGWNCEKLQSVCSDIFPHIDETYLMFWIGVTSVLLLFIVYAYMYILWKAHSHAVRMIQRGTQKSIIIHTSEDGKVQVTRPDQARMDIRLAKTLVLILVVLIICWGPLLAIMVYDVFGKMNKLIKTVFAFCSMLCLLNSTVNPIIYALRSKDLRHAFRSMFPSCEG
row,pIC50,SMILES
1,1.0,CONC(=O)c1ccc2c(c1)N=C(c1ccc(C#N)cc1)c1ccccc1S2
2,1.0,CON(C)C(=O)c1ccc2c(c1)N=C(c1ncccc1C)c1ccccc1S2

# Same assay, conditions: Appendix A; R-SAT CB1; receptor form (mutant or wild-type) not stated; read-out: pIC50 (converted)
row,IC50,SMILES
1,100 nM,Cc1cccnc1C1=Nc2cc(C(=O)NCc3cccs3)ccc2Sc2ccccc21
2,39.8 nM,O=C(NCc1ccccc1Br)c1ccc2c(c1)N=C(C1CCCCC1)c1ccccc1S2 [drawing 548]
3,5.01 nM,CCCNC(=O)c1ccc2c(c1)N=C(c1cccc(Cl)c1)c1ccccc1S2 [drawing 641]
4,3.98 nM,O=C(NCc1ccc(F)cc1)c1ccc2c(c1)N=C(N1CCCCC1)c1ccccc1S2 [drawing 611]
5,10 nM,CCCCNC(=O)c1ccc2c(c1)N=C(c1ccccc1)c1ccccc1S2 [drawing 761]
6,63.1 nM,CCCC1=Nc2cc(C(=O)NCCN(CC(C)C)CC(C)C)ccc2Sc2ccccc21
7,7.94 nM,O=C(NCc1ccco1)c1ccc2c(c1)N=C(c1ccc(Cl)cc1)c1ccccc1S2 [drawing 753]
8,316 nM,Cc1cccnc1C1=Nc2cc(C(=O)NCc3ccco3)ccc2Sc2ccccc21
9,794 nM,CONC(=O)c1ccc2c(c1)N=C(c1ccc(Br)cc1)c1ccccc1S2
10,20 nM,O=C(NCCCc1ccccc1)c1ccc2c(c1)N=C(c1ccccc1F)c1ccccc1S2 [drawing 935]
11,20 nM,CCCC1=Nc2cc(C(=O)NCc3ccccc3)ccc2Sc2ccccc21
12,39.8 nM,O=C(NCc1ccc(F)cc1)c1ccc2c(c1)N=C(c1ccc(Cl)cc1)c1ccccc1[S+]2[O-] (stereo not drawn) [drawing 1125]
13,31.6 nM,O=C(NCCc1ccccn1)c1ccc2c(c1)N=C(c1ccc(Cl)cc1)c1ccccc1S2 [drawing 1049]
14,79.4 nM,CC(NC(=O)c1ccc2c(c1)N=C(c1ccccc1F)c1ccccc1S2)c1ccccc1 (stereo not drawn) [drawing 748]
15,1580 nM,CCCSCCCNC(=O)c1ccc2c(c1)N=C(CCC)c1ccccc1S2
16,10 nM,Cc1ccc(CNC(=O)c2ccc3c(c2)N=C(c2ccc(Cl)s2)c2ccccc2S3)o1 [drawing 765]
17,63.1 nM,O=C(NNCC(F)(F)F)c1ccc2c(c1)N=C(c1cccc(Cl)c1)c1ccccc1S2 [drawing 678]

row,IC50,SMILES
1,63.1 nM,O=C(NN1CCOCC1)c1ccc2c(c1)N=C(C1CCCCC1)c1ccccc1S2
2,6.31 nM,O=C(NCc1ccco1)c1ccc2c(c1)N=C(c1ccc(F)cc1)c1ccccc1S2 [drawing 689]
3,20 nM,O=C(NCc1ccccc1Cl)c1ccc2c(c1)N=C(c1cccc(Cl)c1)c1ccccc1S2 [drawing 955]
4,10 nM,Cc1ccc(CNC(=O)c2ccc3c(c2)N=C(c2ccc(Cl)c(Cl)c2)c2ccccc2S3)o1 [drawing 801]
5,63.1 nM,CC(C)NC(=O)c1ccc2c(c1)N=C(c1ccc(Cl)cc1F)c1ccccc1S2 [drawing 664]
6,79.4 nM,O=C(NC1CCCCC1)c1ccc2c(c1)N=C(c1ccc(Cl)cc1)c1ccccc1S2 [drawing 738]
7,5.01 nM,CC(C)CNC(=O)c1ccc2c(c1)N=C(c1ccc(Cl)c(Cl)c1)c1ccccc1S2 [drawing 643]
8,63.1 nM,Cc1ccsc1C1=Nc2cc(C(=O)NCCc3cccnc3)ccc2Sc2ccccc21 [drawing 694]
9,79.4 nM,O=C(NCCc1cccnc1)c1ccc2c(c1)N=C(c1ccccc1F)c1ccccc1S2
10,39.8 nM,COc1ccc(C2=Nc3cc(C(=O)NC4CCCCC4)ccc3Sc3ccccc32)cc1 [drawing 1153]
11,15.8 nM,O=C(NCCc1cccc(Cl)c1)c1ccc2c(c1)N=C(c1ccc(Cl)cc1)c1ccccc1S2 [drawing 911]
12,31.6 nM,O=C(NCc1ccc(Cl)cc1Cl)c1ccc2c(c1)N=C(c1ccc(F)cc1)c1ccccc1S2 [drawing 1057]
13,316 nM,COc1ccccc1C1=Nc2cc(C(=O)NC3CCCCC3)ccc2Sc2ccccc21
14,39.8 nM,CCOCCNC(=O)c1ccc2c(c1)N=C(c1ccc(Br)cc1)c1ccccc1S2 [drawing 1143]
15,158 nM,Clc1ccc(C2=Nc3cc(-c4ncc[nH]4)ccc3Sc3ccccc32)cc1 [drawing 846]
16,79.4 nM,COc1ccc(C2=Nc3cc(C(=O)NCc4ccncc4)ccc3Sc3ccccc32)cc1 [drawing 728]
17,15.8 nM,CC(CNC(=O)c1ccc2c(c1)N=C(c1cccc(Cl)c1)c1cc(F)ccc1S2)c1ccccc1 (stereo not drawn) [drawing 879]

# Same assay, conditions: Appendix A; R-SAT CB1; receptor form not stated; relative to SR141716 (100%); read-out: % Inhibition
row,Emax,SMILES
1,97%,Cc1cccnc1C1=Nc2cc(C(=O)NCc3cccs3)ccc2Sc2ccccc21
2,85%,O=C(NCc1ccccc1Br)c1ccc2c(c1)N=C(C1CCCCC1)c1ccccc1S2 [drawing 548]
3,107%,CCCNC(=O)c1ccc2c(c1)N=C(c1cccc(Cl)c1)c1ccccc1S2 [drawing 641]
4,80%,O=C(NCc1ccc(F)cc1)c1ccc2c(c1)N=C(N1CCCCC1)c1ccccc1S2 [drawing 611]
5,104%,CCCCNC(=O)c1ccc2c(c1)N=C(c1ccccc1)c1ccccc1S2 [drawing 761]
6,105%,CCCC1=Nc2cc(C(=O)NCCN(CC(C)C)CC(C)C)ccc2Sc2ccccc21
7,94%,O=C(NCc1ccco1)c1ccc2c(c1)N=C(c1ccc(Cl)cc1)c1ccccc1S2 [drawing 753]
8,83%,Cc1cccnc1C1=Nc2cc(C(=O)NCc3ccco3)ccc2Sc2ccccc21
9,68%,CONC(=O)c1ccc2c(c1)N=C(c1ccc(Br)cc1)c1ccccc1S2
10,106%,O=C(NCCCc1ccccc1)c1ccc2c(c1)N=C(c1ccccc1F)c1ccccc1S2 [drawing 935]
11,111%,CCCC1=Nc2cc(C(=O)NCc3ccccc3)ccc2Sc2ccccc21
12,98%,O=C(NCc1ccc(F)cc1)c1ccc2c(c1)N=C(c1ccc(Cl)cc1)c1ccccc1[S+]2[O-] (stereo not drawn) [drawing 1125]
13,93%,O=C(NCCc1ccccn1)c1ccc2c(c1)N=C(c1ccc(Cl)cc1)c1ccccc1S2 [drawing 1049]
14,69%,CC(NC(=O)c1ccc2c(c1)N=C(c1ccccc1F)c1ccccc1S2)c1ccccc1 (stereo not drawn) [drawing 748]
15,87%,CCCSCCCNC(=O)c1ccc2c(c1)N=C(CCC)c1ccccc1S2
16,92%,Cc1ccc(CNC(=O)c2ccc3c(c2)N=C(c2ccc(Cl)s2)c2ccccc2S3)o1 [drawing 765]
17,99%,O=C(NNCC(F)(F)F)c1ccc2c(c1)N=C(c1cccc(Cl)c1)c1ccccc1S2 [drawing 678]
18,56%,O=C(NN1CCOCC1)c1ccc2c(c1)N=C(C1CCCCC1)c1ccccc1S2

row,Emax,SMILES
1,104%,O=C(NCc1ccco1)c1ccc2c(c1)N=C(c1ccc(F)cc1)c1ccccc1S2 [drawing 689]
2,102%,O=C(NCc1ccccc1Cl)c1ccc2c(c1)N=C(c1cccc(Cl)c1)c1ccccc1S2 [drawing 955]
3,100%,Cc1ccc(CNC(=O)c2ccc3c(c2)N=C(c2ccc(Cl)c(Cl)c2)c2ccccc2S3)o1 [drawing 801]
4,101%,CC(C)NC(=O)c1ccc2c(c1)N=C(c1ccc(Cl)cc1F)c1ccccc1S2 [drawing 664]
5,96%,O=C(NC1CCCCC1)c1ccc2c(c1)N=C(c1ccc(Cl)cc1)c1ccccc1S2 [drawing 738]
6,108%,CC(C)CNC(=O)c1ccc2c(c1)N=C(c1ccc(Cl)c(Cl)c1)c1ccccc1S2 [drawing 643]
7,121%,Cc1ccsc1C1=Nc2cc(C(=O)NCCc3cccnc3)ccc2Sc2ccccc21 [drawing 694]
8,110%,O=C(NCCc1cccnc1)c1ccc2c(c1)N=C(c1ccccc1F)c1ccccc1S2
9,115%,COc1ccc(C2=Nc3cc(C(=O)NC4CCCCC4)ccc3Sc3ccccc32)cc1 [drawing 1153]
10,99%,O=C(NCCc1cccc(Cl)c1)c1ccc2c(c1)N=C(c1ccc(Cl)cc1)c1ccccc1S2 [drawing 911]
11,96%,O=C(NCc1ccc(Cl)cc1Cl)c1ccc2c(c1)N=C(c1ccc(F)cc1)c1ccccc1S2 [drawing 1057]
12,72%,COc1ccccc1C1=Nc2cc(C(=O)NC3CCCCC3)ccc2Sc2ccccc21
13,85%,CCOCCNC(=O)c1ccc2c(c1)N=C(c1ccc(Br)cc1)c1ccccc1S2 [drawing 1143]
14,109%,Clc1ccc(C2=Nc3cc(-c4ncc[nH]4)ccc3Sc3ccccc32)cc1 [drawing 846]
15,105%,COc1ccc(C2=Nc3cc(C(=O)NCc4ccncc4)ccc3Sc3ccccc32)cc1 [drawing 728]
16,113%,CC(CNC(=O)c1ccc2c(c1)N=C(c1cccc(Cl)c1)c1cc(F)ccc1S2)c1ccccc1 (stereo not drawn) [drawing 879]
17,36%,CONC(=O)c1ccc2c(c1)N=C(c1ccc(C#N)cc1)c1ccccc1S2
18,0%,CON(C)C(=O)c1ccc2c(c1)N=C(c1ncccc1C)c1ccccc1S2
